Emax and EC50 data for 30 compounds are collected here from patent US9168259B2 (GRÜNENTHAL GMBH, priority 2010, dated 2015).

Read-outs that look alike come from different tables or passages of the source.

For this assay, the target named is T1, KCNQ2/3 channels (Homo sapiens, UniProt O43525+O43526).
T1 construct: expressed in transfected cells
The assay is described as follows: Fluorescence assay using a voltage sensitive dye (fluorimetry). It counts as cell-based. To be noted: for EC50: IC50 where % efficacy is negative, read-out: Fluorimetry EC50/IC50.

Where [1] appears, read: CHO-K1, plateau effect relative to saturated retigabine (50 μM) = 100%, CHO-K1 cells expressing KCNQ2/3, negative values = antagonistic, read-out: Fluorimetry % efficacy (retigabine = 100%).
Where [2] appears, read: CHO-K1 cells expressing KCNQ2/3.

T1 sequence (O43526 whole entry): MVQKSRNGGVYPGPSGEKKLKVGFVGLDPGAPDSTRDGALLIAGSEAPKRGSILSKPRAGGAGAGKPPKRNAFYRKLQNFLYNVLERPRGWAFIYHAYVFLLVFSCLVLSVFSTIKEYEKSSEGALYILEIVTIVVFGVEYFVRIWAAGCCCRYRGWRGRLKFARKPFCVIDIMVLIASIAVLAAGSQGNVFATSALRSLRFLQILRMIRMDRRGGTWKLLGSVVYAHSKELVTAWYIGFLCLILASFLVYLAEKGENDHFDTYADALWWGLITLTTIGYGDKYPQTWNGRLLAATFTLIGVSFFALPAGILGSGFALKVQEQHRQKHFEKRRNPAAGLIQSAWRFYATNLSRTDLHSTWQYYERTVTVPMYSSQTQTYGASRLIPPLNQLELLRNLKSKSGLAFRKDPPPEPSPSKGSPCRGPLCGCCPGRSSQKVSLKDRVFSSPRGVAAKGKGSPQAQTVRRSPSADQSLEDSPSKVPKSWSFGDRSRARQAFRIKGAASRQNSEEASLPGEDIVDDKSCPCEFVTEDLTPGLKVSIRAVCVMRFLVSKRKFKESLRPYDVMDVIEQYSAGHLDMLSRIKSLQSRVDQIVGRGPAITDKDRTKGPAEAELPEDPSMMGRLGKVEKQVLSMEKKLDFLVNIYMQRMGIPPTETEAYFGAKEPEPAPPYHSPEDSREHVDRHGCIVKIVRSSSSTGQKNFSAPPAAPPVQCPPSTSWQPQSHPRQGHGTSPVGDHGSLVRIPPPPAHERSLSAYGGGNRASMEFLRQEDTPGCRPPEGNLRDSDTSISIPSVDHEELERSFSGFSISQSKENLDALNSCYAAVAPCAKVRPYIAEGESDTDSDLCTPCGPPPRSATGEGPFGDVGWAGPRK
T1 sequence (O43525 whole entry): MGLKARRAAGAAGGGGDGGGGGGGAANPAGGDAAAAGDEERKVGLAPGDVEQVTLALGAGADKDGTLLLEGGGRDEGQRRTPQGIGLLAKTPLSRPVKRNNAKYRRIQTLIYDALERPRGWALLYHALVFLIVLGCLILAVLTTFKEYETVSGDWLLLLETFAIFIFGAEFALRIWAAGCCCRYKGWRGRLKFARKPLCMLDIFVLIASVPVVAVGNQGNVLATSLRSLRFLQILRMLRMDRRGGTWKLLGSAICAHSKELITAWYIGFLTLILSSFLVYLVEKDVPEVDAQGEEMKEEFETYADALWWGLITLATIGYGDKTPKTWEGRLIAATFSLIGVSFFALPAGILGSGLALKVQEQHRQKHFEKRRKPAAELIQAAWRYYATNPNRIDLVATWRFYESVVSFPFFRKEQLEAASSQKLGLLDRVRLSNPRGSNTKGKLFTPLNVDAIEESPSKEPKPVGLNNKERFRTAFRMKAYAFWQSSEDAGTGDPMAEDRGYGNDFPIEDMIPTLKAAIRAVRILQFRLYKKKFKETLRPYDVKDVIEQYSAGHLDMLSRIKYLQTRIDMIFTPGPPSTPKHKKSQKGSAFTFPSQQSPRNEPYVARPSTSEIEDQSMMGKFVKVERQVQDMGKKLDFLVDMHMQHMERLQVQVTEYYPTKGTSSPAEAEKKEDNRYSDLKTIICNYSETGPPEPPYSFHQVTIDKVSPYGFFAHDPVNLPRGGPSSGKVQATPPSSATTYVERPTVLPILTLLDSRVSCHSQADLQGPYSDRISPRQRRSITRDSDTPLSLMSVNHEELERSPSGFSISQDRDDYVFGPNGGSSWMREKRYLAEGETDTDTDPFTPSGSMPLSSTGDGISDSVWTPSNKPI

On to `CCSc1nc(N2CCOCC2)cc(C)c1C(=O)NCc1cc(F)cc(C(F)(F)F)c1` [Example 93, 2-Ethylsulfanyl-N-[[3-fluoro-5-(trifluoromethyl)-phenyl]-methyl]-4-methyl-6-morpholin-4-yl-pyridine-3-carboxylic acid amide], for which the Emax under setting [1] stood at 103%. The EC50 under setting [2] was determined as 54 nM.

Regarding `CCSc1nc(N2CCOCC2=O)cc(C)c1C(=O)NCc1cccc(F)c1` [Example 312, 2-Ethylsulfanyl-N-[(3-fluorophenyl)-methyl]-4-methyl-6-(3-oxo-morpholin-4-yl)-pyridine-3-carboxylic acid amide], under setting [1], the Emax was 135%. For the same compound, the EC50 under setting [2] came out at 6700 nM.

Take `CCSc1nc(N2CCOC[C@@H]2COC)cc(C)c1C(=O)NCc1cccc(F)c1` [Example 180, 2-Ethylsulfanyl-N-[(3-fluorophenyl)-methyl]-6-[(3S)-3-(methoxymethyl)-morpholin-4-yl]-4-methyl-pyridine-3-carboxylic acid amide]: the Emax under setting [1] was 123%. Besides, the EC50 under setting [2] was determined as 86 nM.

On to `Cc1cc(N2CCOCC2)nc(C(C)(C)C)c1C(=O)NCCCC(C)(C)C` [Example 220, 2-tert-Butyl-N-(4,4-dimethyl-pentyl)-4-methyl-6-morpholin-4-yl-pyridine-3-carboxylic acid amide], for which the Emax under setting [1] amounted to 166%. For the same compound, the EC50 under setting [2] is 682 nM.

Regarding `CCSc1nc(N2CCOC[C@H]2C)cc(C)c1C(=O)NCc1ccc(Cl)cc1` [Example 207, N-[(4-Chlorophenyl)-methyl]-2-ethylsulfanyl-4-methyl-6-[(3R)-3-methyl-morpholin-4-yl]-pyridine-3-carboxylic acid amide], the Emax under setting [1] is 183%. Moreover, the EC50 under setting [2] was 69 nM.

With `CCSc1nc(N(C)CCOC)cc(C)c1C(=O)NCc1cccc(F)c1` [Example 35, 2-Ethylsulfanyl-N-[(3-fluorophenyl)-methyl]-6-(2-methoxy-ethyl-methyl-amino)-4-methyl-pyridine-3-carboxylic acid amide], under setting [1], the Emax came to 153%. Further, the EC50 under setting [2] was determined as 635 nM.

Regarding `CCSc1nc(N2CCO[C@H](C)C2)cc(C)c1C(=O)NCCCC(C)(C)C` [Example 275, N-(4,4-Dimethyl-pentyl)-2-ethylsulfanyl-4-methyl-6-[(2R)-2-methyl-morpholin-4-yl]-pyridine-3-carboxylic acid amide], the Emax under setting [1] is 208%. The EC50 under setting [2] is 63 nM.

Take `CCSc1nc(N2CCOCC2)cc(C)c1C(=O)NCCC(O)C(C)C` (stereo not drawn) [Example 286, 2-Ethylsulfanyl-N-(3-hydroxy-4-methyl-pentyl)-4-methyl-6-morpholin-4-yl-pyridine-3-carboxylic acid amide]: under setting [1], the Emax was found to be 198%. Moreover, under setting [2], the EC50 is 1750 nM.

For the compound `CCSc1nc(N2CCOCC2)cc(C)c1C(=O)NCCCC(C)(C)CC` [Example 348, N-(4,4-Dimethyl-hexyl)-2-ethylsulfanyl-4-methyl-6-morpholin-4-yl-pyridine-3-carboxylic acid amide], the Emax under setting [1] was 228%. Besides, the EC50 under setting [2] was determined as 22 nM.

As for `CCSc1nc(N2CCOCC2)cc(C)c1C(=O)NCc1ccc(COC)c(F)c1` [Example 147, 2-Ethylsulfanyl-N-[[3-fluoro-4-(methoxymethyl)-phenyl]-methyl]-4-methyl-6-morpholin-4-yl-pyridine-3-carboxylic acid amide], the Emax under setting [1] turned out to be 153%. In addition, the EC50 under setting [2] amounted to 530 nM.

Take `CCC(C)c1nc(N2CCOCC2)cc(C)c1C(=O)NCc1ccc(Cl)cc1` (stereo not drawn) [Example 347, N-[(4-Chlorophenyl)-methyl]-4-methyl-2-(1-methyl-propyl)-6-morpholin-4-yl-pyridine-3-carboxylic acid amide]: the Emax under setting [1] came to 156%. In addition, under setting [2], the EC50 is 41 nM.

`CCC(C)c1nc(N2CCOCC2)cc(C)c1C(=O)NCCCC(C)(C)C` (stereo not drawn) [Example 221, N-(4,4-Dimethyl-pentyl)-4-methyl-2-(1-methyl-propyl)-6-morpholin-4-yl-pyridine-3-carboxylic acid amide]: under setting [1], the Emax is 259%. The EC50 under setting [2] was 22 nM.

Regarding `Cc1cc(N2CCOCC2)nc(N(C)C)c1C(=O)NCCCC(F)(F)F` [Example 246, 2-Dimethylamino-4-methyl-6-morpholin-4-yl-N-(4,4,4-trifluoro-butyl)-pyridine-3-carboxylic acid amide], the Emax under setting [1] turned out to be 173%. For the same compound, under setting [2], the EC50 stood at 4100 nM.

Consider `CCSc1nc(N2CCOCC2)cc(C)c1C(=O)NCCCS(C)(=O)=O` [Example 162, 2-Ethylsulfanyl-4-methyl-N-(3-methylsulfonyl-propyl)-6-morpholin-4-yl-pyridine-3-carboxylic acid amide], for which the Emax under setting [1] was determined as 21%.

For the compound `Cc1cc(N2CCOCC2)nc(N(C)C)c1C(=O)NCc1cccc(F)c1` [Example 65, 2-Dimethylamino-N-[(3-fluorophenyl)-methyl]-4-methyl-6-morpholin-4-yl-pyridine-3-carboxylic acid amide], the Emax under setting [1] was 238%. Also, the EC50 under setting [2] was 1060 nM.

Regarding `CSc1nc(N2CCOCC2)cc(C)c1C(=O)NCc1ccc(C(F)(F)F)cc1` [Example 157, 4-Methyl-2-methylsulfanyl-6-morpholin-4-yl-N-[[4-(trifluoromethyl)-phenyl]-methyl]-pyridine-3-carboxylic acid amide], the Emax under setting [1] stood at 127%. Further, the EC50 under setting [2] was 166 nM.

`CCSc1nc(N(C)CC2CCCO2)cc(C)c1C(=O)NCc1cccc(F)c1` (stereo not drawn) [Example 294, 2-Ethylsulfanyl-N-[(3-fluorophenyl)-methyl]-4-methyl-6-[methyl-(tetrahydro-furan-2-yl-methyl)-amino]-pyridine-3-carboxylic acid amide]: the Emax under setting [1] worked out at 129%. Under setting [2], the EC50 is 1030 nM.

Regarding `CCSc1nc(N2CCOCC2)cc(C)c1C(=O)NCCCc1ccccc1` [Example 53, 2-Ethylsulfanyl-4-methyl-6-morpholin-4-yl-N-(3-phenyl-propyl)-pyridine-3-carboxylic acid amide], under setting [1], the Emax is 191%. For the same compound, the EC50 under setting [2] was 248 nM.

On to `CCSc1nc(N2CCOCC2)cc(C)c1C(=O)NCCCCC#N` [Example 163, N-(4-Cyano-butyl)-2-ethylsulfanyl-4-methyl-6-morpholin-4-yl-pyridine-3-carboxylic acid amide], for which the Emax under setting [1] was 73%.

On to `CCCc1nc(N2CCOC[C@H]2C)cc(C)c1C(=O)NCc1ccc(F)cc1` [Example 197, N-[(4-Fluorophenyl)-methyl]-4-methyl-6-[(3R)-3-methyl-morpholin-4-yl]-2-propyl-pyridine-3-carboxylic acid amide], for which the Emax under setting [1] came to 211%. Under setting [2], the EC50 was determined as 142 nM.

Turning to `Cc1cc(N2CCOCC2)nc(N(C)C)c1C(=O)NCc1ccc(F)c(F)c1` [Example 206, N-[(3,4-Difluoro-phenyl)-methyl]-2-dimethylamino-4-methyl-6-morpholin-4-yl-pyridine-3-carboxylic acid amide], the Emax under setting [1] was determined as 207%. Besides, the EC50 under setting [2] is 402 nM.

For `CCCc1nc(N2CCOCC2)cc(C)c1C(=O)NCc1cc(F)cc(F)c1` [Example 322, N-[(3,5-Difluoro-phenyl)-methyl]-4-methyl-6-morpholin-4-yl-2-propyl-pyridine-3-carboxylic acid amide], under setting [1], the Emax was 193%. In addition, under setting [2], the EC50 was determined as 80 nM.

For the compound `CCSc1nc(N2CCOCC2)cc(C)c1C(=O)NCc1ccc(C#N)cc1` [Example 145, N-[(4-Cyano-phenyl)-methyl]-2-ethylsulfanyl-4-methyl-6-morpholin-4-yl-pyridine-3-carboxylic acid amide], under setting [1], the Emax was 145%. The EC50 under setting [2] came out at 673 nM.

With `CCSc1nc(N2CCOCC2)cc(C)c1C(=O)NCC(C)CC(C)(C)C` (stereo not drawn) [Example 306, 2-Ethylsulfanyl-4-methyl-6-morpholin-4-yl-N-(2,4,4-trimethyl-pentyl)-pyridine-3-carboxylic acid amide], under setting [1], the Emax turned out to be 33%.

`CCC(C)c1nc(N2CCOC[C@H]2C)cc(C)c1C(=O)NCCCC(C)(C)C` (stereo partly drawn) [Example 195, N-(4,4-Dimethyl-pentyl)-4-methyl-6-[(3R)-3-methyl-morpholin-4-yl]-2-(1-methyl-propyl)-pyridine-3-carboxylic acid amide]: the Emax under setting [1] stood at 242%. For the same compound, under setting [2], the EC50 was 13 nM.

On to `COCCCc1nc(N2CCOCC2)cc(C)c1C(=O)NCCCC(C)(C)C` [Example 354, N-(4,4-Dimethyl-pentyl)-2-(3-methoxy-propyl)-4-methyl-6-morpholin-4-yl-pyridine-3-carboxylic acid amide], for which, under setting [1], the Emax stood at 204%. For the same compound, under setting [2], the EC50 was found to be 1540 nM.

As to `CCOC(=O)CN(C)c1cc(C)c(C(=O)NCc2cccc(F)c2)c(SCC)n1` [Example 72], for the setting “CHO-K1, read-out: Fluorimetry % efficacy (retigabine = 100%)”, the Emax came to 93%. For the same compound, the EC50 under setting [2] is 2080 nM.

Regarding `CCSc1nc(N2CCOC[C@H]2C)cc(C)c1C(=O)NCc1cccc(F)c1` [Example 295, 2-Ethylsulfanyl-N-[(3-fluorophenyl)-methyl]-4-methyl-6-[(3R)-3-methyl-morpholin-4-yl]-pyridine-3-carboxylic acid amide], the Emax under setting [1] was found to be 188%. Also, the EC50 under setting [2] is 50 nM.

As to `Cc1cc(N2CCOCC2)nc(C(C)C)c1C(=O)NCc1ccc(C(F)(F)F)cc1` [Example 311, 2-Isopropyl-4-methyl-6-morpholin-4-yl-N-[[4-(trifluoromethyl)-phenyl]-methyl]pyridine-3-carboxylic acid amide], the Emax under setting [1] is 146%. For the same compound, the EC50 under setting [2] was 45 nM.

As for `CCSc1nc(N2CCc3cc(C(F)(F)F)ccc3C2)cc(C)c1C(=O)NCc1cccc(F)c1` [Example 27, 2-Ethylsulfanyl-N-[(3-fluorophenyl)-methyl]-4-methyl-6-[6-(trifluoromethyl)-1,2,3,4-tetrahydro-isoquinolin-2-yl]pyridine-3-carboxylic acid amide], the Emax under setting [1] is 132%. Moreover, under setting [2], the EC50 was 151 nM.
